Measured values published in article PMC6956804, “Potent antibacterial activity of MSI-1 derived from the magainin 2 peptide against drug-resistant bacteria” (Theranostics, 2020).
Converted amounts (≈) assume the structure as drawn. Peptide text beside a SMILES is read from it.

Columns and labels:
[1] = tested on: penicillin-resistant E. coli; assay: Bacteria growth curve and viability at sub-MICs; assay type: cell-based
Procedure: E. coli were mixed with sub-MICs MSI-1 and OD600 value was recorded every 2 h throughout 26 h of coincubation. In addition, bacteria were suspended with nutrient broth containing MSI-1 and subjected to routine MTT assay after 24 h incubation.

[2] = tested on: HaCaT cells; assay: Wound scratch assay; assay type: cell-based; details: cell scratch assay
Procedure: To further investigate whether MSI-1 could protect from bacterial infection of the skin, mice were anesthetized with pentobarbital sodium (50 mg/kg, i.p) and shaved on the dorsal surfaces. The depilated skin was secured with 2-cm-diameter plastic containers that filled up with boiling water at contact time 10 s. Afterwards, a full-thickness wound (2 cm in diameter) was cut on the burned skin of each mouse. Penicillin-resistant E. coli suspension (100 µl, 1× 10^10 CFU/ml) was slowly inoculated over wound with a pipette tip, and a gentle stream of air was aimed over the inoculation site until skin appeared wet but absent of any standing volume from the inoculum suspension. Two hours later, vehicle (3% CMC-Na), MSI-1 or polymyxin, which was suspended in sterile CMC-Na (3%) in PBS at concentration of 10, 5, 2.5 mg/ml (MSI-1) or 5 mg/ml (polymyxin), was inoculated on the same area with a pipette tip, 1 ml/kg, once a day (n=15 per group). Mice were fed in cages individually to avoid cross infection and were treated daily for 7 consecutive days. At 3rd and 7th days, cutaneous wound healing and bacteria counts in skin lesion were measured. Moreover, 12 h after the last treatment, blood samples were collected from the retro-orbital venous plexus under anesthesia (pentobarbital sodium, 50 mg/kg). […] The contents of TNF-α and IL-6 in skin homogenates and serum were measured by ELISA. […]

[3] = tested on: E. coli; assay: ONPG assay, release of cytoplasmic β-galactosidase; assay type: cell-based; details: 2 h
Procedure: E. coli were mixed with different concentrations of MSI-1, incubated for 2 h, resuspended by PI solution (20 μg/ml), and ultimately subjected to flow cytometry for PI uptake assay. Calcein-loaded liposomes were prepared to imitate bacterial membrane. Serially diluted peptide was added into liposomes (1:1, v:v) after obtaining the fluorescence intensity at λex/λem=490/520 nm. Once MSI-1 addition, fluorescence intensity was detected at 0, 3, 5, 10, 15 and 20 min. Calcein release rate was calculated as previously described. To observe bacterial morphology, E. coli treated with MSI-1 (32 μg/ml) or PBS for 2 h was collected, fixed by 2.5% glutaraldehyde and subjected to scanning electron microscopy (SEM) assay (SUI510, Hitachi, Japan). In addition, E. coli were resuspended in reaction buffer (60 mM Na2HPO4^. 7H2O, 40 mM NaH2PO4^. H2O, 10 mM KCl, 1 mM MgSO4.7H2O, 0.27% 2-Mercaptoethanol), incubated with ONPG (2.5 mg/ml) and MSI-1 for 2 h. Bacteria envelope integrity was calculated by the percentage of O-nitrophenol production.

[4] = tested on: Helicobacterpylori SS1; assay type: cell-based; details: 4 h
Procedure: Bacterial strains were purchased from the American Type Culture Collection (ATCC). All clinical strains were isolated from human clinical specimens by the Medical Laboratory Center of Zhongda Hospital (Nanjing, Jiangsu, China). Ndm-1, tem-1, ctx-m-1, shv-1 -carrying bacteria were constructed as previously described. The recombinant bacteria carrying drug-resistant genes were prepared in LB nutrient and induced by IPTG (1 mM) for 4 h before text. Other bacterial strains were respectively prepared in MHB and Columbia Blood Agar Base.
A standard micro-broth serial dilution assay was used to measure MIC of peptides. MIC was obtained by a microplate reader at 600 nm. MBC was determined as previously described.

[5] = tested on: Penicillin-resistant E. coli; assay: Local E. coli infection in scalded mouse model; assay type: in vivo, mice; details: for subeschar colonies reduced to: topical once a day
Procedure: To further investigate whether MSI-1 could protect from bacterial infection of the skin, mice were anesthetized with pentobarbital sodium (50 mg/kg, i.p) and shaved on the dorsal surfaces. The depilated skin was secured with 2-cm-diameter plastic containers that filled up with boiling water at contact time 10 s. Afterwards, a full-thickness wound (2 cm in diameter) was cut on the burned skin of each mouse. Penicillin-resistant E. coli suspension (100 µl, 1× 10^10 CFU/ml) was slowly inoculated over wound with a pipette tip, and a gentle stream of air was aimed over the inoculation site until skin appeared wet but absent of any standing volume from the inoculum suspension. Two hours later, vehicle (3% CMC-Na), MSI-1 or polymyxin, which was suspended in sterile CMC-Na (3%) in PBS at concentration of 10, 5, 2.5 mg/ml (MSI-1) or 5 mg/ml (polymyxin), was inoculated on the same area with a pipette tip, 1 ml/kg, once a day (n=15 per group). Mice were fed in cages individually to avoid cross infection and were treated daily for 7 consecutive days. At 3rd and 7th days, cutaneous wound healing and bacteria counts in skin lesion were measured. Moreover, 12 h after the last treatment, blood samples were collected from the retro-orbital venous plexus under anesthesia (pentobarbital sodium, 50 mg/kg). Finally, all animals were euthanized by cervical dislocation to collect the lung samples for counting live bacteria. The contents of TNF-α and IL-6 in skin homogenates and serum were measured by ELISA. Skin lesion was fixed by 4% paraformaldehyde for H&E staining. The expression levels of EGF and VEGF in skin lesion were examined by immunohistochemistry. In addition, the wound scratch assay was also performed on HaCaT cells to further test whether MSI-1 improved wound healing by promoting keratinocyte migration.

[6] = target: pepsin (Sus scrofa, UniProt P00791); details: peptide:protease 300:1, 0.1 M NH4HCO3 pH 8.2, room temperature, HPLC; peak time shifted from 6.187 to 6.792 min (0.5 h)
From the text: Aliquots of the mixture were extracted periodically and diluted with water/acetonitrile (3:2, v:v) containing 2% TFA for HPLC detection or for antibacterial activity assay [18].

[7] = pH stability; assay type: physicochemical
Procedure: MSI-1 at 2 mg/ml in PBS (pH 7.0), aqueous HCl (pH 3.0) and aqueous NaOH (pH 11.0) were incubated for 2, 4, 12 and 24 h at 37 °C. The remaining MSI-1 was measured by HPLC. In addition, the bacteria colonies survived 1× MIC of HCl or NaOH treated peptide were recorded simultaneously. That is, after 18 h coincubation, the absorbance which represents the bacteria colonies survived, was recorded by a microplate reader at 600 nm.

Chain of pepsin (P00791 60-385): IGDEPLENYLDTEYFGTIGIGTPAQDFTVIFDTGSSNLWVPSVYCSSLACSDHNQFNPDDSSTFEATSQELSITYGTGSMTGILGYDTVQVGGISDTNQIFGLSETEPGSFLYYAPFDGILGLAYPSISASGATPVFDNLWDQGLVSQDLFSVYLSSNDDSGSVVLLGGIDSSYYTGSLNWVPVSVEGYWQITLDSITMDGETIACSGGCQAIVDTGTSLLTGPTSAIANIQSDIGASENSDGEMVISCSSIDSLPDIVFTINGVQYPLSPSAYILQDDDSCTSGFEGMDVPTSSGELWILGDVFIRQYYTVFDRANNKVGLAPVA

## CC[C@H](C)[C@H](NC(=O)CN)C(=O)N[C@@H](Cc1c[nH]c2ccccc12)C(=O)N[C@@H](CCCCN)C(=O)N[C@@H](Cc1ccccc1)C(=O)N[C@@H](CC(C)C)C(=O)N[C@@H](CCCCN)C(=O)N[C@@H](CCCCN)C(=O)N[C@@H](C)C(=O)N[C@@H](CCCCN)C(=O)N[C@@H](CCCCN)C(=O)N[C@@H](Cc1ccccc1)C(=O)N[C@@H](Cc1c[nH]c2ccccc12)C(=O)N[C@@H](CCCCN)C(N)=O [MSI-1] (H-GIWKFLKKAKKFWK-NH2)
[1]; 1/4 and 1/8 MIC, OD600 over 26 h
  growth pattern of bacteria: not significantly altered
[1]; sub-MICs, MTT, within 26 h, p>0.05
  cell viability vs control: no significant difference
[2]
  migration of HaCaT cells: could not promote the migration
[3]; 2× MIC
  activity in the supernatants (β-galactosidase release, relative to sonicated bacteria): 36.7%
[3]; 4× MIC
  activity in the supernatants (β-galactosidase release, relative to sonicated bacteria): 80.7%
[4]
  MBC: 64 µg/mL (≈ 35.4 µM)
  MIC: 32 µg/mL (≈ 17.7 µM)
[5]; 10 mg/kg, 7th day, ELISA
  TNF-α and IL-6 in skin lesion homogenate: strongly reduced
[5]; 10 mg/kg, after 3 days
  subeschar colonies reduced to: 38.6%
[5]; 10 mg/kg, after 7 days
  subeschar colonies reduced to: 49%
[5]; 3rd and 7th days, especially at 10 mg/kg
  wound closure: significantly improved wound closure
[5]; 7th day, MSI-1 5 and 10 mg/kg, polymyxin B, p<0.01 vs the model group
  bacterial colonies in the lung and blood: obviously decreased
[5]; immunohistochemistry
  expression of EGF and VEGF in the burned and infected skin: no obvious effect
[6]
  stability in pepsin solution: some peptide hydrolysates might be produced
[7]; 2 mg/ml in aqueous HCl (pH 3.0), aqueous NaOH (pH 11.0) or PBS (pH 7.0), 37 °C, within 24 h, HPLC
  percentage of remaining MSI-1: 99%-100%
[7]; treated peptide at 1× MIC, 18 h, 600 nm
  effect of HCl (pH 3.0) and NaOH (pH 11.0) treatment on MIC against bacteria: did not affect the MIC
